pKi: −log10 of the molar value.
Legend:
[1] = target: GABA A receptor alpha-4/beta-3/gamma-2 (Homo sapiens, UniProt P18507+P28472+P48169); experiment: Binding affinity to human recombinant GABA alpha-4-beta-3-gamma-2 receptor; type: protein-complex assay
[2] = target: T1, GABA-A receptor; alpha-5/beta-3/gamma-2 (Homo sapiens, UniProt P18507+P28472+P31644); experiment: Binding affinity to human recombinant GABA alpha-5-beta-3-gamma-2 receptor; type: protein-complex assay
T1 sequence (P18507 whole entry): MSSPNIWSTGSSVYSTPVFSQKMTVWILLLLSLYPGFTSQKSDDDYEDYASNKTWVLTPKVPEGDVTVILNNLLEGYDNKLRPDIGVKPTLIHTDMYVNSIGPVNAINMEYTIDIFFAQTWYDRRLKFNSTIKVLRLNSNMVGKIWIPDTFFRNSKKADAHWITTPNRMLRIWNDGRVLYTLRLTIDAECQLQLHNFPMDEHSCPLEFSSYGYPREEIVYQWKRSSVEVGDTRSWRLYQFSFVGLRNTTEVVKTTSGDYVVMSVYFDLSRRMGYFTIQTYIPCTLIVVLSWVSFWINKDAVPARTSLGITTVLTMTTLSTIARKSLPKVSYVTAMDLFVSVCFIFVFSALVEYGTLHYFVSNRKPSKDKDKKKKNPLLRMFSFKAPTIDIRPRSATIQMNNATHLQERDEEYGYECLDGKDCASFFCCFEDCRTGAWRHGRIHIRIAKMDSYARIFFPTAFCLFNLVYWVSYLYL
T1 sequence (P28472 whole entry): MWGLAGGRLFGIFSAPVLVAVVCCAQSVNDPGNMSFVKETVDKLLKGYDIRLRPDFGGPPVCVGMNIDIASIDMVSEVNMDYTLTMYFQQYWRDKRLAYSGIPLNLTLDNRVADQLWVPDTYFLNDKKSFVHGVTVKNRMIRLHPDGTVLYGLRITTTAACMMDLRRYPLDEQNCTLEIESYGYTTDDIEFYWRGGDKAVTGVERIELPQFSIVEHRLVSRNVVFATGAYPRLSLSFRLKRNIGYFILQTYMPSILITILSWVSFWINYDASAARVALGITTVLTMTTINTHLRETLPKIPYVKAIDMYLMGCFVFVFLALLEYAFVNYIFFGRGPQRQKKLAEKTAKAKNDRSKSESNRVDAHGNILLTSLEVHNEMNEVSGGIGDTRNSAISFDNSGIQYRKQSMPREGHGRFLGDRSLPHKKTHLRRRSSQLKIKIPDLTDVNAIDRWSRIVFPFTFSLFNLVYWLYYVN
T1 sequence (P31644 whole entry): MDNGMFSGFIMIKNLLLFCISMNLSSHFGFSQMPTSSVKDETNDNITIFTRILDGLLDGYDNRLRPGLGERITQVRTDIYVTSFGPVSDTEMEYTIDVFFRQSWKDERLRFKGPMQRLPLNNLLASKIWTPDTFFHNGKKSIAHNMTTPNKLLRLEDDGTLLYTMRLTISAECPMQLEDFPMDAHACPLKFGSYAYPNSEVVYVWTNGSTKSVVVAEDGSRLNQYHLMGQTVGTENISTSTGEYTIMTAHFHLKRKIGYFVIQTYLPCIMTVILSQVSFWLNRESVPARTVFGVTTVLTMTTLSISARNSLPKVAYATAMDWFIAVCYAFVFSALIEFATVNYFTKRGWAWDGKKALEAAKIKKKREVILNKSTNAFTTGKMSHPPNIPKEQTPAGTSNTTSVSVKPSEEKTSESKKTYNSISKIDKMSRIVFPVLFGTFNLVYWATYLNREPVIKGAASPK

Sequence of GABA A receptor alpha-4/beta-3/gamma-2 (P48169 whole entry, one chain of several): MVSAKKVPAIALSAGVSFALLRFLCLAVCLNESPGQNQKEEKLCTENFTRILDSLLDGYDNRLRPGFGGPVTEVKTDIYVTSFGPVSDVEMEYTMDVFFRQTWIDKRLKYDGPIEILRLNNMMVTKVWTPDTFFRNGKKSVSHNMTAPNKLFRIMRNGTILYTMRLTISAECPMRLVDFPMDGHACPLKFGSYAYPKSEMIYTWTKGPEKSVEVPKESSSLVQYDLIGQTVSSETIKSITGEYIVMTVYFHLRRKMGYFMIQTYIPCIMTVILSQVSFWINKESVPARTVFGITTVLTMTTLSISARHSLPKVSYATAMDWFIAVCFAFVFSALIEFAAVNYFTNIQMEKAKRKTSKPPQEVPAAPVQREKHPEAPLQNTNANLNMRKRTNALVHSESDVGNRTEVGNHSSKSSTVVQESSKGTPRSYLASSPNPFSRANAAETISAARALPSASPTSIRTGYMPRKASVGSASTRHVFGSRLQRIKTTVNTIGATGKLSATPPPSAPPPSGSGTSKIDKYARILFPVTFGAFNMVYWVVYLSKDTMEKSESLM

Row | SMILES | pKi [1] | pKi [2]
1 | CC(=O)c1ncn2c1CN(C)C(=O)c1cc(Cl)ccc1-2 | 5.58 | 4.53
2 | COCc1ncn2c1CN(C)C(=O)c1cc(Cl)ccc1-2 | 7.41 | < 6.52

From ChEMBL document CHEMBL1275264, “The GABA(A) receptor as a target for photochromic molecules” (Bioorg Med Chem, 2010)
